Measurements as given in PubChem BioAssay AID248 (DTP/NCI, 2004).
Inconclusive results and toxic doses are left out. No stated cut-off is given here; in the data, active means T/C of 150% or more; inactive means T/C below 125%.

Tested on: L1210 leukemia ip in BDF1 mice, survival T/C
Assay: NCI In Vivo Anticancer Drug Screen. Data for tumor model L1210 Leukemia (intraperitoneal) in B6D2F1 (BDF1) mice
Settings: endpoint: mean survival time, higher = longer survival
Procedure, shortened: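 Ratio derived from survival: compound-dosed mice over vehicle-dosed mice, all bearing a transplantable tumor.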

[1] = dose: 100.0 mg/kg/injection, schedule: Q01DX009 (ip), vehicle: saline with Tween-80
[2] = dose: 100.0 mg/kg/injection, schedule: Q04DX003 (ip), vehicle: saline with Tween-80
[3] = dose: 200.0 mg/kg/injection, schedule: Q04DX003 (ip), vehicle: saline with Tween-80
[4] = dose: 400.0 mg/kg/injection, schedule: Q04DX003 (ip), vehicle: saline with Tween-80
[5] = dose: 100.0 mg/kg/injection, schedule: Q04DX003 (ip), vehicle: saline
[6] = dose: 100.0 mg/kg/injection, schedule: Q01DX001 (ip), vehicle: Klucel (hydroxypropylcellulose) (HPC)
[7] = dose: 100.0 mg/kg/injection, schedule: Q04DX002 (ip), vehicle: Klucel (hydroxypropylcellulose) (HPC)
[8] = dose: 200.0 mg/kg/injection, schedule: Q01DX001 (ip), vehicle: Klucel (hydroxypropylcellulose) (HPC)
[9] = dose: 200.0 mg/kg/injection, schedule: Q04DX002 (ip), vehicle: Klucel (hydroxypropylcellulose) (HPC)
[10] = dose: 400.0 mg/kg/injection, schedule: Q01DX001 (ip), vehicle: Klucel (hydroxypropylcellulose) (HPC)
[11] = dose: 400.0 mg/kg/injection, schedule: Q04DX002 (ip), vehicle: Klucel (hydroxypropylcellulose) (HPC)
[12] = dose: 100.0 mg/kg/injection, schedule: Q01DX009 (ip), vehicle: Klucel (hydroxypropylcellulose) (HPC)
[13] = dose: 100.0 mg/kg/injection, schedule: Q04DX003 (ip), vehicle: Klucel (hydroxypropylcellulose) (HPC)
[14] = dose: 200.0 mg/kg/injection, schedule: Q01DX009 (ip), vehicle: Klucel (hydroxypropylcellulose) (HPC)
[15] = dose: 200.0 mg/kg/injection, schedule: Q04DX003 (ip), vehicle: Klucel (hydroxypropylcellulose) (HPC)
[16] = dose: 400.0 mg/kg/injection, schedule: Q01DX009 (ip), vehicle: Klucel (hydroxypropylcellulose) (HPC)
[17] = dose: 400.0 mg/kg/injection, schedule: Q04DX003 (ip), vehicle: Klucel (hydroxypropylcellulose) (HPC)
[18] = dose: 100.0 mg/kg/injection, schedule: Q01DX001 (ip), vehicle: saline
[19] = dose: 200.0 mg/kg/injection, schedule: Q01DX001 (ip), vehicle: saline
[20] = dose: 400.0 mg/kg/injection, schedule: Q01DX001 (ip), vehicle: saline
[21] = dose: 15.0 mg/kg/injection, schedule: Q01DX Z (ip), vehicle: saline
[22] = dose: 30.0 mg/kg/injection, schedule: Q01DX Z (ip), vehicle: saline

Measured: T/C

CCCN(CCC)/N=N/c1nc[nH]c1C(N)=O
inactive: dose: 100.0 mg/kg/injection, schedule: Q01DX001 (ip), vehicle: saline with Tween-80 95 % of control | [1] 97 % of control | [2] 101 % of control | dose: 200.0 mg/kg/injection, schedule: Q01DX001 (ip), vehicle: saline with Tween-80 98 % of control | dose: 200.0 mg/kg/injection, schedule: Q01DX009 (ip), vehicle: saline with Tween-80 106 % of control | [3] 104 % of control | dose: 400.0 mg/kg/injection, schedule: Q01DX001 (ip), vehicle: saline with Tween-80 113 % of control | [4] 112 % of control

Cc1c(O)c2ccc3ccccc3c2oc1=O
inactive: [5] 97 % of control | dose: 200.0 mg/kg/injection, schedule: Q04DX003 (ip), vehicle: saline 91 % of control

NC(=O)COc1ccc(Cl)c2ccccc12
inactive: [6] 96 % of control | [7] 86 % of control | [8] 102 % of control | [9] 99 % of control | [10] 86 % of control | [11] 99 % of control

COC(CCC#N)c1ccc(C)cc1 (stereo not given)
inactive: dose: 100.0 mg/kg/injection, schedule: Q01DX009 (sc), vehicle: olive oil, sesame oil, peanut oil 102 % of control | dose: 100.0 mg/kg/injection, schedule: Q04DX003 (sc), vehicle: olive oil, sesame oil, peanut oil 108 % of control | dose: 200.0 mg/kg/injection, schedule: Q01DX009 (sc), vehicle: olive oil, sesame oil, peanut oil 91 % of control | dose: 200.0 mg/kg/injection, schedule: Q04DX003 (sc), vehicle: olive oil, sesame oil, peanut oil 108 % of control | dose: 400.0 mg/kg/injection, schedule: Q01DX009 (sc), vehicle: olive oil, sesame oil, peanut oil 98 % of control | dose: 400.0 mg/kg/injection, schedule: Q04DX003 (sc), vehicle: olive oil, sesame oil, peanut oil 96 % of control

Cc1cc2oc(/C=C(\C#N)c3ccc([N+](=O)[O-])cc3)c(C)c2cc1C
inactive: [12] 88 % of control | [13] 98 % of control | [14] 103 % of control | [15] 95 % of control | [16] 99 % of control | [17] 98 % of control

COC(=O)c1ccc(=O)n(C/C=C(\C)CCC=C(C)C)c1
inactive: [18] 95 % of control | dose: 100.0 mg/kg/injection, schedule: Q01DX009 (ip), vehicle: saline 104 % of control | [19] 97 % of control | dose: 200.0 mg/kg/injection, schedule: Q01DX009 (ip), vehicle: saline 90 % of control | [20] 101 % of control | dose: 400.0 mg/kg/injection, schedule: Q01DX009 (ip), vehicle: saline 101 % of control

CC(C)=CCOC1=CC(=O)C(=O)c2ccccc21
inactive: dose: 25.0 mg/kg/injection, schedule: Q04DX002 (ip), vehicle: saline with Tween-80 87 % of control | dose: 25.0 mg/kg/injection, schedule: Q04DX003 (ip), vehicle: saline with Tween-80 94 % of control | dose: 50.0 mg/kg/injection, schedule: Q04DX002 (ip), vehicle: saline with Tween-80 95 % of control | dose: 50.0 mg/kg/injection, schedule: Q04DX003 (ip), vehicle: saline with Tween-80 93 % of control | dose: 100.0 mg/kg/injection, schedule: Q04DX002 (ip), vehicle: saline with Tween-80 95 % of control | [2] 99 % of control

Nc1nc(N)c2c(no[n+]2[O-])n1
inactive: dose: 75.0 mg/kg/injection, schedule: Q01DX001 (ip), vehicle: other 98 % of control

CCCCNC(=O)NS(=O)(=O)c1ccc(CCl)cc1
inactive: dose: 50.0 mg/kg/injection, schedule: Q04DX003 (ip), vehicle: Klucel (hydroxypropylcellulose) (HPC) 98 % of control | [13] 102 % of control | [15] 100 % of control

CC1(C)C2CCC1(C)C(OCC(=O)O)C2 (stereo not given)
inactive: [7] 96 % of control | [9] 121 % of control | [11] 102 % of control

CN=C(N)c1ccc(N=C(N)c2cccc(C(N)=Nc3ccc(C(N)=NC)cc3)c2)cc1
inactive: [21] 97 % of control | [22] 120 % of control

Cc1ccnc(NC(c2ccccc2)c2ccc3cccnc3c2O)c1 (stereo not given)
inactive: [18] 103 % of control | [19] 95 % of control | [20] 86 % of control

O=C1CSC(=S)N1c1ccccc1
inactive: dose: 100.0 mg/kg/injection, schedule: Q01DX001 (ip), vehicle: carboxymethylcellulose (CMC) 95 % of control | [2] 96 % of control | dose: 200.0 mg/kg/injection, schedule: Q01DX001 (ip), vehicle: carboxymethylcellulose (CMC) 97 % of control | [3] 93 % of control | dose: 400.0 mg/kg/injection, schedule: Q01DX001 (ip), vehicle: carboxymethylcellulose (CMC) 93 % of control | [4] 90 % of control

CCSc1nc2nccnc2c(=O)[nH]1
inactive: [12] 98 % of control | [13] 97 % of control | [14] 102 % of control | [15] 92 % of control | [16] 102 % of control | [17] 92 % of control

CC(=O)Nc1c(Cl)cc2c(c1Cl)Cc1c-2cc(Cl)c(NC(C)=O)c1Cl
inactive: [2] 93 % of control | [3] 93 % of control | [4] 101 % of control

Cc1ccccc1-c1nc2cc(Cl)ccc2c(=O)o1
inactive: dose: 25.0 mg/kg/injection, schedule: Q01DX009 (ip), vehicle: saline with Tween-80 98 % of control | dose: 50.0 mg/kg/injection, schedule: Q01DX009 (ip), vehicle: saline with Tween-80 88 % of control | [1] 96 % of control | [2] 100 % of control | [3] 102 % of control | [4] 108 % of control

CC(=O)NC1CCCC(CC2CCCCC2)C1 (stereo not given)
inactive: [13] 103 % of control | [15] 93 % of control | [17] 98 % of control

CCN(CC)C(C)C(=O)c1ccc2cc(Br)c3ccccc3c2c1 (stereo not given)
inactive: dose: 222.0 mg/kg/injection, schedule: Q01DX Z (ip), vehicle: methylcellulose (MC) 97 % of control | dose: 333.0 mg/kg/injection, schedule: Q01DX Z (ip), vehicle: methylcellulose (MC) 104 % of control | dose: 500.0 mg/kg/injection, schedule: Q01DX Z (ip), vehicle: methylcellulose (MC) 87 % of control

COc1ccc(C(=NN=C(N)N)c2ccc(OC)cc2)cc1
inactive: [21] 96 % of control | [22] 100 % of control | dose: 30.0 mg/kg/injection, schedule: Q01DX Z (oral), vehicle: saline 105 % of control | dose: 60.0 mg/kg/injection, schedule: Q01DX Z (ip), vehicle: saline 96 % of control | dose: 60.0 mg/kg/injection, schedule: Q01DX Z (oral), vehicle: saline 97 % of control | dose: 120.0 mg/kg/injection, schedule: Q01DX Z (oral), vehicle: saline 105 % of control | dose: 240.0 mg/kg/injection, schedule: Q01DX Z (oral), vehicle: saline 92 % of control | dose: 480.0 mg/kg/injection, schedule: Q01DX Z (oral), vehicle: saline 94 % of control

O=C1OC(c2ccccc2)(C2(c3ccccc3)C=C(c3ccccc3)C(=O)O2)C=C1c1ccccc1 (stereo not given)
inactive: [6] 100 % of control | [13] 94 % of control | [8] 97 % of control | [15] 103 % of control | [10] 100 % of control | [17] 91 % of control

C=C(Br)CN(CC)C(C)=O
inactive: [5] 108 % of control

C[n+]1c(-c2ccccc2)c2ccccc2c2ccccc21
inactive: dose: 0.78 mg/kg/injection, schedule: Q01DX009 (ip), vehicle: water 91 % of control | dose: 1.56 mg/kg/injection, schedule: Q01DX009 (ip), vehicle: water 96 % of control | dose: 1.56 mg/kg/injection, schedule: Q04DX003 (ip), vehicle: water 103 % of control | dose: 3.12 mg/kg/injection, schedule: Q01DX009 (ip), vehicle: water 93 % of control | dose: 3.12 mg/kg/injection, schedule: Q04DX003 (ip), vehicle: water 97 % of control | dose: 6.25 mg/kg/injection, schedule: Q04DX003 (ip), vehicle: water 108 % of control
